Assay results: patent US20190119282A1, “IMIDAZOPYRIDAZINES USEFUL AS INHIBITORS OF THE PAR-2 SIGNALING PATHWAY” (Vertex Pharmaceuticals Incorporated, priority 2013, published 2019)

Key:
[1] = molecular target: T1, PAR2 (HT-29 cells, SLIGKV activation) (Homo sapiens, UniProt P55085); assay: Ca FLIPR TETRA assay, ANTAGONIST mode, stimulation with 8 μM SLIGKV; format: cell-based; details: HT-29 cells, stimulation with 8 μM SLIGKV
T1 construct: host or cells: HT-29 cells
T1 sequence (P55085 26-397): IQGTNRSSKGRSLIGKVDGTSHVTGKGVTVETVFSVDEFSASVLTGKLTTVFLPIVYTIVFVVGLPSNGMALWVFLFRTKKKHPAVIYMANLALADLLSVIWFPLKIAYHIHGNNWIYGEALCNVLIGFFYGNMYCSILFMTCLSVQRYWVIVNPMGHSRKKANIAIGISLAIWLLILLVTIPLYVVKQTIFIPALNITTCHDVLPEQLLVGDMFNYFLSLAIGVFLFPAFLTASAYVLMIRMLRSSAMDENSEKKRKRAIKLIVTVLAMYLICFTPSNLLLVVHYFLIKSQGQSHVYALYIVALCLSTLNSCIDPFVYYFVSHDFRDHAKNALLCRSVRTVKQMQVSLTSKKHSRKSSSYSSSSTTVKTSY
Method: (§1) Example 60: Protocol for Testing PAR2 Compounds in ANTAGONIST Mode Using the Ca FLIPR^TETRA Assay (384 Well)
(§2) 23000 HT-29 cells (ATCC# HTB-38) were plated in 384-well black, transparent-flat bottom plates and incubated in 25 uL of 1% FBS/McCoy's media ON at 37° C. under an atmosphere of 5% CO2. The following day, 25 uL FLIPR calcium 5 Molecular Devices assay reagent (Cat: R-8186) was added. Plates were incubated at 37° C. and r. t. for 45 min and 15 min, respectively. Compounds dilutions were prepared in 100% DMSO using a Biomek FX and diluted 20-fold in HBSS and then 5.5 uL was added directly to the cells by the FLIPR^TETRA (10× dilution) using FLIPR Tetra Pipette tips, black, non-sterile, 384 Molecular Devices (Cat: 9000-0764).
(§3) A first read was performed to determine whether the test compounds on their own can activate Ca2+ responses.
(§4) The cells were incubated with the compounds for 30 min at r. t. and then read in ANTAGONIST mode in the same plate by stimulating with 6.2 uL of a fixed concentration of the activator: final concentrations: 8 μM SLIGKV, 1 U/mL Thrombin, 3.1 U/mL trypsin, or 0.6 μM UTP.

[2] = molecular target: T2, PAR2 (HT-29 cells, trypsin activation) (Homo sapiens, UniProt P55085); assay: Ca FLIPR TETRA assay, ANTAGONIST mode, stimulation with 3.1 U/mL trypsin; format: cell-based; details: HT-29 cells, stimulation with 3.1 U/mL trypsin
T2 construct: host or cells: HT-29 cells
T2 sequence (P55085 26-397): T1 sequence (P55085 26-397)
Method: as §1, §2, §3, §4

[3] = tested on: Thrombin-stimulated Ca2+ response in HT-29 cells; assay: Ca FLIPR TETRA assay, ANTAGONIST mode, stimulation with 1 U/mL Thrombin; format: cell-based, human; details: Homo sapiens, HT-29 cells, stimulation with 1 U/mL Thrombin
Method: as §1, §2, §3, §4

[4] = tested on: UTP-stimulated Ca2+ response in HT-29 cells; assay: Ca FLIPR TETRA assay, ANTAGONIST mode, stimulation with 0.6 μM UTP; format: cell-based, human; details: Homo sapiens, HT-29 cells, stimulation with 0.6 μM UTP
Method: as §1, §2, §3, §4

Cc1ccc(-c2cc(C(C)C)c3nc(C(=O)N4CCNC(=O)C4(C)C)cn3n2)cc1Cl [Compound I-508]
IC50 ([1]; antagonist mode): 4.7 nM
IC50 ([2]; antagonist mode): 4.1 nM
IC50 ([3]; antagonist mode): > 1 µM
IC50 ([4]; antagonist mode): > 1000 nM

Cc1nnc(C(=O)N2CCN(C(=O)c3cn4nc(-c5ccc(F)c(Cl)c5)cc(C(C)(C)C)c4n3)C(C)(C)C2)o1 [Compound I-465]
IC50 ([1]; antagonist mode): 1.8 nM
IC50 ([2]; antagonist mode): 3.7 nM
IC50 ([3]; antagonist mode): > 1 µM
IC50 ([4]; antagonist mode): > 1000 nM

CC(C)CCCC(=O)N1CCN(C(=O)c2cn3nc(-c4ccc(F)cc4)cc(C(C)C)c3n2)C[C@@H]1C [Compound I-139]
IC50 [1]: 2 nM
IC50 [2]: 9 nM
IC50 [3]: 25 µM
IC50 [4]: > 500 nM

C=C(C)c1cc(-c2ccc(F)cc2)nn2cc(C(=O)N3CCN(C(=O)[C@H](O)CC(C)(C)C)[C@@H](C)C3)nc12 [Compound I-99]
IC50 [1]: 3 nM
IC50 [2]: 10 nM
IC50 [3]: > 50 µM
IC50 [4]: > 50000 nM

Cc1cc(-c2ccc(F)cc2)nn2cc(C(=O)N3CCC(C#N)CC3)nc12 [Compound I-60]
IC50 [1]: 7900 nM
IC50 [2]: 14000 nM
IC50 [3]: 32 µM
IC50 [4]: 40000 nM

Cc1nnc(C(=O)N2CCN(C(=O)c3cn4nc(-c5ccc(F)c(C)c5)cc(C(C)C)c4n3)C(C)(C)C2)o1 [Compound I-344]
IC50 ([1]; antagonist mode): 15.4 nM
IC50 ([2]; antagonist mode): 15.8 nM
IC50 ([3]; antagonist mode): > 1 µM
IC50 ([4]; antagonist mode): > 1000 nM

Cc1cc(-c2cc(C(C)C)c3nc(C(=O)N4CCN(C(=O)c5ccccn5)CC4(C)C)cn3n2)ccc1F [Compound I-379]
IC50 ([1]; antagonist mode): 9.4 nM
IC50 ([2]; antagonist mode): 10.5 nM
IC50 ([3]; antagonist mode): > 1 µM
IC50 ([4]; antagonist mode): > 1000 nM

CC(C)c1cc(-c2ccc(C(F)(F)F)cc2)nn2cc(C(=O)N3CCN(C(=O)C4CC(C)(O)C4)CC3(C)C)nc12 (stereo not shown) [Compound I-371]
IC50 ([1]; antagonist mode): 1.3 nM
IC50 ([2]; antagonist mode): 1.6 nM
IC50 ([3]; antagonist mode): > 1 µM
IC50 ([4]; antagonist mode): > 1000 nM

CC(C)(C)c1cc(-c2ccc(N=[N+]=[N-])cc2)nn2cc(C(=O)N3CCNC(=O)C3(C)C)nc12 [Compound I-536]
IC50 ([1]; antagonist mode): 170 nM
IC50 ([2]; antagonist mode): 235 nM
IC50 ([3]; antagonist mode): > 1 µM
IC50 ([4]; antagonist mode): > 1000 nM

CCOC1CCN(C(=O)c2cn3nc(-c4ccc(F)cc4)cc(C)c3n2)CC1 [Compound I-62]
IC50 [1]: 7400 nM
IC50 [2]: 29000 nM
IC50 [3]: 38 µM
IC50 [4]: 44000 nM

Cc1ncc(C(=O)N2CCN(C(=O)c3cn4nc(-c5ccc(Cl)c(F)c5)cc(C(C)(C)C)c4n3)C(C)(C)C2)[nH]1 [Compound I-453]
IC50 ([1]; antagonist mode): 0.7 nM
IC50 ([2]; antagonist mode): 1.2 nM
IC50 ([3]; antagonist mode): > 1 µM
IC50 ([4]; antagonist mode): > 1000 nM

CC(C)(O)C(=O)N1CCN(C(=O)c2cn3nc(-c4ccc(F)cc4)cc(C(C)(C)C)c3n2)C(C)(C)C1 [Compound I-198]
IC50 ([1]; antagonist mode): 4.4 nM
IC50 ([2]; antagonist mode): 5.6 nM
IC50 ([3]; antagonist mode): > 1 µM
IC50 ([4]; antagonist mode): > 1000 nM

CC(C)c1cc(-c2ccc(Cl)cc2)nn2cc(C(=O)N3CCNC(=O)C3(C)C)nc12 [Compound I-353]
IC50 ([1]; antagonist mode): 2.4 nM
IC50 ([2]; antagonist mode): 3 nM
IC50 ([3]; antagonist mode): > 1 µM
IC50 ([4]; antagonist mode): > 1000 nM

CC(C)c1cc(-c2ccc(F)cc2)nn2cc(C(=O)N3CCC4(CC3)CNC(=O)O4)nc12 [Compound I-24, 8-[6-(4-fluorophenyl)-8-isopropyl-imidazo[1,2-b]pyridazine-2-carbonyl]-1-oxa-3,8-diazaspiro[4.5]decan-2-one]
IC50 [1]: 220 nM
IC50 [2]: 590 nM
IC50 [3]: > 50 µM
IC50 [4]: > 50000 nM

CCOCCC(=O)N1CCN(C(=O)c2cn3nc(-c4ccc(F)cc4)cc(C(C)C)c3n2)C[C@@H]1C [Compound I-143]
IC50 [1]: 41 nM
IC50 [2]: 290 nM
IC50 [3]: 22 µM
IC50 [4]: 21000 nM

CC(C)c1cc(-c2ccc(F)c(Cl)c2)nn2cc(C(=O)N3CCNCC3(C)C)nc12 [Compound I-497]
IC50 ([1]; antagonist mode): 405 nM
IC50 ([2]; antagonist mode): 270 nM
IC50 ([3]; antagonist mode): > 1 µM
IC50 ([4]; antagonist mode): > 1000 nM
